Test results reported in US20210228549A1 (Biohaven Therapeutics Ltd., priority 2015, published 2021).
Read-outs that look alike come from different tables or passages of the source.

Tests used:
Melanoma C8161 cells = assay: Inhibition of human melanoma cell xenograft growth; assay type: in vivo; conditions: C8161 xenograft in nude mice, P<0.01
Experimental: Mice were treated every day for 21 days, and tumor sizes were measured twice weekly with a Vernier caliper.

[1] = PK in fasted male Sprague Dawley rats, PO administration of prodrug; assay type: in vivo; conditions: for Prodrug AUGlast, Mean: PO 5 mg/kg
Experimental: (§1) Blood samples were collected at pre-determined time points including a 0 h time point and usually between 7 and 8 additional time points not exceeding a 24 h period.
(§2) Plasma samples were extracted and analyzed using the methods described in Plasma Sample Extraction and Analysis. All data are expressed as ng/mL of the free base. Samples that were below the limit of quantification (0.5 ng/mL) were not used in the calculation of averages.
(§3) Pharmacokinetic parameters were calculated from the time course of the plasma concentrations. Pharmacokinetic parameters were determined with Phoenix Winnonlin (v6.3) software using a non-compartmental model. The maximum plasma concentration (Cmax) and time to the maximum plasma concentration (Tmax) of the compound of the disclosure were observed from the data. The area under the concentration-time curve (AUC) of the compound of the disclosure was calculated using the trapezoidal formula with calculation to the last quantifiable data point, and to infinity if applicable. Plasma half-life (t1/2) was calculated from 0.693/slope of the terminal elimination phase. Mean residence time, MRT, was calculated by dividing the area under the moment curve (AUMC) by the AUC. Any samples below the limit of quantitation (0.5 ng/mL) were treated as zero for pharmacokinetic data analysis.
Plasma Sample Extraction and Analysis: Analytical stock solutions (1.00 mg/mL of the free compound of the disclosure) were prepared in DMSO. Standards were prepared in diluted matrix containing 1 part 10% formic acid and 9 parts Sprague-Dawley rat plasma containing sodium heparin as the anticoagulant (pre-diluted with 1 part of 0.5M citric acid and 9 parts whole blood). Working solutions were prepared in 50:50 acetonitrile:water. Working solutions were then added to plasma to make calibration standards to final concentrations of 1000, 500, 100, 50, 10, 5, 1, and 0.5 ng/mL. Standards contained both the test article and riluzole. Standards were treated identically to the study samples.
Sample Extraction: Plasma samples were extracted via acetonitrile precipitation on a Tomtec Quadra 96-Model 320 liquid handling system in a 96-well plate format.

[2] = PK in fasted male Sprague Dawley rats, IV administration of prodrug; assay type: in vivo
Experimental: as §1, §2
as §3, with “analysis. […]” for “analysis.”

[3] = system: patients diagnosed with Alzheimer's disease of mild-to-moderate severity; conditions: for CDR01-Sum of Boxes, Model Estimates, Difference LSMean (SE) / ADAS-Cog Total Score, Model Estimates, Difference LSMean (SE) / Hippocampal Volume Change, Model Estimates, Difference LSMean (SE): placebo vs troriluzole; for Hippocampal Volume Change, Model Estimates, LSMean (SE) / Hippocampal Volume Change, Model Estimates, Difference LSMean (SE) / Hippocampal Volume Change, Analysis Value, Mean (SD) / Hippocampal Volume Change, Analysis Value, Median: volumetric MRI;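 for all read-outs here: multicenter parallel-group study, AD severity graded by Mini-Mental State Examination score (mild 20–24, moderate 14–19)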
Experimental: This is a phase 2 multi-center, randomized, double blind, placebo-controlled, parallel group study in patients with mild to moderate Alzheimer's disease.
Participants will be randomized to one of two groups: 280 mg of BHV-4157 or placebo. […] Treatment duration is 48 weeks (12 months). There is a screening period of up to 42 days and a 4-week post-treatment observation period.
The CDR-SOB (Hughes, Berg, Danziger, Coben, & Martin, 1982) is a validated composite rating of cognition and everyday functioning used in longitudinal AD research which incorporates both informant input and direct assessment of performance. It assesses through semi structured interview 3 cognitive domains including memory, orientation, and judgement/problem solving and 3 everyday functional domains including community affairs, home and hobbies and personal care. There are 5 levels of impairment from none CDR=0 to severe CDR=3. The individual domain scores are added to create a sum of the box scores.

[4] = system: patients with Stage III and IV melanoma; conditions: after only 14 days of treatment, cited from earlier work
[5] = fasted male Sprague Dawley rats, prodrug in plasma
[6] = Mild AD Patients Only, Week 48, troriluzole 280 mg once daily, N 62
[7] = Mild AD Patients Only, Week 48, troriluzole 280 mg once daily, N 65
[8] = mild-to-moderate AD, Week 48, troriluzole 280 mg once daily, N 118
[9] = mild-to-moderate AD, Week 48, troriluzole 280 mg once daily, N 119
[10] = Mild AD Patients Only, Week 48, troriluzole 280 mg once daily, N 48
[11] = mild-to-moderate AD, Week 48, troriluzole 280 mg once daily, N 87

In the case of `CN(CC(=O)Nc1nc2ccc(OC(F)(F)F)cc2s1)C(=O)CNC(C)(C)C` [Example 125, 2-(tert-butylamino)-N-methyl-N-(2-oxo-2-((6-(trifluoromethoxy)benzo[d]thiazol-2-yl)amino)ethyl)acetamide], the “Tumor volume vs untreated or vehicle-treated controls” value (Melanoma C8161 cells; 4.9 mg/kg (threefold lower in molar terms) p.o. gavage every day for 21 days) is reported as “significant reduction in tumor volume”, the “Tumor volume vs untreated or vehicle-treated controls” value (Melanoma C8161 cells; 14.6 mg/kg (equimolar to riluzole) p.o. gavage every day for 21 days) is reported as “significant reduction in tumor volume” and the bioavailability ([1]; rat, plasma, fasted male Sprague Dawley rats, PO 14 mg/kg, prodrug, read-out: Example 125 % F (bioavailability)) is reported as 26%. It also gave an AUC(0-inf) ([1]; rat, fasted male Sprague Dawley rats, PO 14 mg/kg, prodrug in plasma, read-out: Example 125 AUCinf, Mean) of 2290 ng·h/mL, an AUC(0-t) ([1]; rat, fasted male Sprague Dawley rats, PO 14 mg/kg, prodrug in plasma, read-out: Example 125 AUClast, Mean) of 2260 ng·h/mL and a Cmax ([1]; rat, fasted male Sprague Dawley rats, PO 14 mg/kg, prodrug in plasma, read-out: Example 125 Cmax, Mean) of 213 ng/mL. For the same molecule, the half-life ([1]; rat, fasted male Sprague Dawley rats, PO 14 mg/kg, prodrug in plasma, read-out: Example 125 t1/2, Mean (converted)) was 228 min, the Tmax ([1]; rat, fasted male Sprague Dawley rats, PO 14 mg/kg, prodrug in plasma, read-out: Example 125 tmax, Mean) was 1.8 h and the “Half life on conversion to Riluzole” value ([1]; rats, oral administration) was “long half life”. The “Oral bioavailability on conversion to Riluzole” value ([1]; rats, oral administration) was “high oral bioavailability” and the “Half life on conversion to Riluzole” value [2] was “moderate to long half life”.

With `CN(CC(=O)Nc1nc2ccc(OC(F)(F)F)cc2s1)C(=O)CNC(=O)CN` [Example 204, 2-Amino-N-{[methyl({[6-(trifluoromethoxy)-1,3-benzothiazol-2-yl]carbamoyl}methyl)carbamoyl]methyl}acetamide] the “Prodrug AUGlast, Mean” value [1, 5] was 0.90 ng·h/mL, the Safety and tolerability ([3]; 280 mg once daily, safety profile consistent with previous studies) was “relatively well tolerated” and the “CDR01-Sum of Boxes, Model Estimates, LSMean (SE)” value ([3]; Mild AD Patients Only, Week 48, change from baseline, 95% CI (1.1, 2.2)) was 1.7 (0.29). For the same molecule, the “ADAS-Cog Total Score, Model Estimates, LSMean (SE)” value ([3]; Mild AD Patients Only, Week 48, change from baseline, 95% CI (2.7, 5.7)) was 4.2 (0.76), the “CDR01-Sum of Boxes, Model Estimates, Difference LSMean (SE)” value ([3]; Mild AD Patients Only, Week 48, 95% CI (−1.1, 0.5), P-Value 0.4347) was −0.3 (0.40) and the “ADAS-Cog Total Score, Model Estimates, Difference LSMean (SE)” value ([3]; Mild AD Patients Only, Week 48, 95% CI (−1.4, 2.7)) was 0.7 (1.02). The “CDR01-Sum of Boxes, Analysis Value, Mean (SD)” value [3, 6] was 7.1 (2.79), the “CDR01-Sum of Boxes, Analysis Value, Median” value [3, 6] was 6.5 and the “CDR01-Sum of Boxes, Change from Baseline, Mean (SD)” value [3, 6] was 1.4 (2.06). For the same molecule, the “CDR01-Sum of Boxes, Change from Baseline, Median” value [3, 6] was 1.0, the “ADAS-Cog Total Score, Analysis Value, Mean (SD)” value [3, 7] was 26.2 (8.22) and the “ADAS-Cog Total Score, Analysis Value, Median” value [3, 7] was 26.0. For the same molecule, the “ADAS-Cog Total Score, Change from Baseline, Mean (SD)” value [3, 7] was 3.9 (5.90), the “ADAS-Cog Total Score, Change from Baseline, Median” value [3, 7] was 4.0 and the NPI across subgroups ([3]; Week 48, only mild AD, only moderate AD, only ApoE4 positive, only ApoE4 negative patients) was “numerical differences of a potential benefit”. For the same molecule, the “ADAS-Cog11 score, difference placebo vs troriluzole” value ([3]; mild AD, after 48 weeks, 95% CI −1.4, 2.7, p-value=0.5233) was 0.7, the “LS mean percent deformation change from baseline hippocampal volume” value ([3]; mild AD, after 48 weeks, n=48, 95% CI −1.6, −0.6, placebo −1.6%) was −1.1% and the “LS mean change from baseline on the NPI score” value ([3]; mild AD, after 48 weeks, n=62, placebo 4.2 points) was 2.1 points. For the same molecule, the “LS mean change from baseline on the ADAS-Cog11 score” value ([3]; mild AD, after 48 weeks, n=65, 95% CI 2.7, 5.7, placebo 4.9 points) was 4.2 points, the “CDR01-Sum of Boxes, Model Estimates, LSMean (SE)” value ([3]; mild-to-moderate AD, Week 48, change from baseline, 95% CI (1.7, 2.5)) was 2.1 (0.21) and the “CDR01-Sum of Boxes, Model Estimates, Difference LSMean (SE)” value ([3]; mild-to-moderate AD, Week 48, 95% CI (−0.8, 0.3), P-Value 0.4474) was −0.2 (0.28). The “ADAS-Cog Total Score, Model Estimates, Difference LSMean (SE)” value ([3]; mild-to-moderate AD, Week 48, 95% CI (−1.8, 1.8), P-Value 0.9809) was 0.0 (0.93), the “CDR01-Sum of Boxes, Analysis Value, Mean (SD)” value [3, 8] was 8.3 (3.24) and the “CDR01-Sum of Boxes, Analysis Value, Median” value [3, 8] was 8.0. The “CDR01-Sum of Boxes, Change from Baseline, Mean (SD)” value [3, 8] was 1.9 (2.37), the “CDR01-Sum of Boxes, Change from Baseline, Median” value [3, 8] was 2.0 and the “ADAS-Cog Total Score, Analysis Value, Mean (SD)” value [3, 9] was 31.5 (10.82). For the same molecule, the “ADAS-Cog Total Score, Analysis Value, Median” value [3, 9] was 30.0, the “ADAS-Cog Total Score, Charge from Baseline, Mean (SD)” value [3, 9] was 0.8 (7.40) and the “ADAS-Cog Total Score, Charge from Baseline, Median” value [3, 9] was 0.0. For the same molecule, the “NPI score, difference troriluzole vs placebo” value ([3]; mild-to-moderate AD, after 48 weeks, 95% CI −4.08, 1.10, p-value=0.258) was −1.5, the “LS mean change from baseline on the NPI score” value ([3]; mild-to-moderate AD, after 48 weeks, n=120, placebo 3.8 points) was 2.3 points and the “Hippocampal Volume Change, Model Estimates, LSMean (SE)” value ([3]; Mild AD Patients Only, Week 48, 95% CI (−1.6, −0.6)) was −1.1 (0.27). For the same molecule, the “Hippocampal Volume Change, Model Estimates, Difference LSMean (SE)” value ([3]; Mild AD Patients Only, Week 48, 95% CI (−1.2, 0.3), P-Value 0.2240) was −0.5 (0.38), the “Hippocampal Volume Change, Analysis Value, Mean (SD)” value [3, 10] was −1.1 (1.61) and the “Hippocampal Volume Change, Analysis Value, Median” value [3, 10] was −0.9. The “Hippocampal Volume Change, Model Estimates, LSMean (SE)” value ([3]; mild-to-moderate AD, Week 48, 95% CI (−1.4, −0.7)) was −1.1 (0.18), the “Hippocampal Volume Change, Model Estimates, Difference LSMean (SE)” value ([3]; mild-to-moderate AD, Week 48, 95% CI (−0.6, 0.5), P-Value 0.8670) was 0.0 (0.26) and the “Hippocampal Volume Change, Analysis Value, Mean (SD)” value [3, 11] was −1.1 (1.50). For the same molecule, the “Hippocampal Volume Change, Analysis Value, Median” value [3, 11] was −0.9.

For `CN(CC(=O)Nc1nc2ccc(OC(F)(F)F)cc2s1)C(=O)CNC1CCNCC1` [Example 216, N-methyl-2-[(piperidin-4-yl)amino]-N-({[6-(trifluoromethoxy)-1,3-benzothiazol-2-yl]carbamoyl}methyl)acetamide], the “Prodrug AUGlast, Mean” value [1, 5] was 16.6 ng·h/mL.

In the case of `Nc1nc2ccc(OC(F)(F)F)cc2s1` [riluzole], the “Patients with clinical or radiologic evidence of tumor response” value ([4]; listed as Riluzole) is given as “four of 12” and the “Patients with clinical or radiologic evidence of tumor response” value [4] is given as “four of twelve”.
